Results: US20230414575A1, “MK2 ACTIVATING COMPOUNDS FOR USE IN TREATING VASCULAR LEAK AND ENDOTHELIAL BARRIER DISORDERS” (Akttyva Therapeutics, Inc., priority 2020, published 2023)

Tests used:
[1] = molecular target: T1, MK2 (Homo sapiens, UniProt P49137); test: ELISA MK2 cell-based activity assay (phospho-HSP-27), Malme-3M cells; settings: for Ratio to Control / Pho-HSP27: Malme-3M cells, compound 20 μM, 30 minutes, 37° C.; for Pho-HSP27: phospho-HSP27 ELISA; for response in phospho-HSP27 ELISA, overall ranking: overall statement on compounds tested at 20 μM (Malme-3M and RMVEC cells)
T1 construct: endogenous in cells; host or cells: Malme-3M
T1 sequence (P49137 whole entry): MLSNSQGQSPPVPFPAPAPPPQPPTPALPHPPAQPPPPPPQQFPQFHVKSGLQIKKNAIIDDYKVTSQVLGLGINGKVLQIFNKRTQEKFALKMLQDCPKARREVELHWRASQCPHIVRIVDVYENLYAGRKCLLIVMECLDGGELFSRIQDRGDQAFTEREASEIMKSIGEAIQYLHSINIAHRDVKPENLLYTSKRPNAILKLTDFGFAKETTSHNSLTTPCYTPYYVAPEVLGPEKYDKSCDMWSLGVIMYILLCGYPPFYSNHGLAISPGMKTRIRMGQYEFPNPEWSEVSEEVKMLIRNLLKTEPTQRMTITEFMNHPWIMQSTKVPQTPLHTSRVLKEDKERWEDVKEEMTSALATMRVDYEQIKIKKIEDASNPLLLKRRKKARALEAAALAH
Procedure: (§1) The MK2 activator candidates, identified using the artificial intelligence (AI)-assisted docking approach, were tested in activity assays for lead selection against the MK2 target. MK2 activation was assessed using (a) a cell-based assay using rat microvascular endothelial cells (RMVEC) and (b) human cancer skin fibroblast cells (Malme-3M). In both assays, an Enzyme-linked ImmunoSorbent Assay (ELISA) technique was used to measure (HSP-27) phosphorylation (DYC2314-2, R&D Systems). Both cell lines were grown to confluency in a 96-well tissue culture plate and treated at 37° C. for 30 minutes with the test compounds at concentrations of 20 μM. The cells were subsequently lysed with a lysis solution containing 0.5% Triton X-100 and anti-proteolysis agents. The resulting lysates were then loaded onto ELISA plates coated with anti-rat phospho-HSP27. After incubation and washing, the plates were treated with an horseradish peroxidase (HRP)-conjugated anti-phospho-HSP27 secondary antibody and then measured for chemiluminescence. Higher activity compounds, acting on MK2, induced higher levels of HSP-27 phosphorylation, as measured by the ELISA.

[2] = molecular target: T2, MK2 (Rattus norvegicus, UniProt Q80ZF4); test: ELISA MK2 cell-based activity assay (phospho-HSP-27), RMVEC cells; settings: compound 20 μM, 30 minutes, 37° C.; for Average Response HSP27: phospho-HSP27 ELISA
T2 construct: endogenous in cells; host or cells: rat microvascular endothelial cells (RMVEC)
T2 sequence (Q80ZF4 1-386): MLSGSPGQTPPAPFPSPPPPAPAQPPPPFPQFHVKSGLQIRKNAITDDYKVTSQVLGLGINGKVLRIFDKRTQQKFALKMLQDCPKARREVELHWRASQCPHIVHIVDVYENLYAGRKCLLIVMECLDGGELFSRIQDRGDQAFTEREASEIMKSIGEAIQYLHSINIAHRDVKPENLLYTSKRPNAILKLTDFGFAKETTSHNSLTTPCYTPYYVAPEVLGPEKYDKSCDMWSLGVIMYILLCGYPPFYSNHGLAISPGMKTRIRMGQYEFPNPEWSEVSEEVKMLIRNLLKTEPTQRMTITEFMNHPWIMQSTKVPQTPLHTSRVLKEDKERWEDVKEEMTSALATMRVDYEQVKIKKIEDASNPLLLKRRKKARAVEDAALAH
Procedure: as §1

[3] = molecular target: T2, MK2; test: Western blot of HSP-27 phosphorylation in rat microvascular endothelial cells; type: cell-based; settings: 20 μM, 30 minutes, 37° C., of five compounds tested
Procedure: In order to assess the functional activity of the putative MK2 binding activators, a series of these compounds (i.e., Leflunomide, Netupitant, Paliperidone, Lomitapide, and Perospirone) were analyzed by Western blot analysis. Rat microvascular endothelial cells were grown to confluency in 35 mm tissue culture dishes. The cells were treated with or without the putative MK2 binding activators at 20 μM concentration for 30 minutes at 37° C. As a positive control, one of the cell dishes was exposed to UV light for ca. 10 minutes. […] The membrane was washed, treated with a chemiluminescence substrate, and digitally imaged followed by quantification by densitometry. The intensity of detected signal was proportional to the MK2 activation potency of the tested compound.
Western blot results from the compounds analyzed by the above-described method are provided in FIG. 1 and graphically as a histogram plot in FIG. 2, after normalization for HSP-27 signal.
The two bands seen in each lane of the blots represent monomeric and dimeric forms of both phosphorylated and unphosphorylated HSP-27. The intensity of the bands was quantified by densitometry and then each raw readout was normalized by the signal intensity of unphosphorylated HSP-27, in order to correct for any differences in lysate load across the various treatment conditions.

SMILES | Ratio to Control [1] | Pho-HSP27 [1] [pg/mL] | Ratio Compound/control [2] | Average Response HSP27 [2] [pg/mL] | response in phospho-HSP27 ELISA, overall ranking [1] | increase in HSP-27 phosphorylation (Western blot, normalized for HSP-27 signal) [3]
COc1ccc(-c2ccc3ncc4c(c3c2)n(-c2ccc(N3CCNCC3)c(C(F)(F)F)c2)c(=O)n4C)cn1 [Compound 14, Bgt-226] | 1.2 | 26.9 | 1.1 | 19.4 | – | –
C[C@@H](Oc1cc(-n2cnc3ccc(CN4CCN(C)CC4)cc32)sc1C(N)=O)c1ccccc1C(F)(F)F [Compound 29, Gsk-461364] | 1.0 | 22.1 | 1.8 | 39.0 | – | –
Cc1csc(-c2nnc(Nc3ccc(Oc4ncccc4-c4ccnc(N)n4)cc3)c3ccccc23)c1 [Compound 33, Amg- 900] | 0.9 | 21.2 | 1.6 | 20.4 | – | –
C=CCn1c(=O)c2cnc(Nc3ccc(N4CCN(C)CC4)cc3)nc2n1-c1cccc(C(C)(C)O)n1 [Compound 36, Azd-1775] | 0.7 | 15.7 | 0.9 | 21.4 | – | –
FC(F)(F)c1ccc(/C=C/c2nc(COc3ccc(CCCCn4ccnn4)cc3)co2)cc1 [Compound 37, Mubritinib] | 1.6 | 36.8 | 1.6 | 34.0 | – | –
Nc1ccccc1NC(=O)c1ccc(CNc2nccc(-c3cccnc3)n2)cc1 [Compound 38, Mocetinostat] | 0.9 | 21.2 | 1.0 | 17.8 | – | –
Cc1nc2ccc(CN(C)c3ccc(C(=O)N[C@@H](CCC(=O)O)C(=O)O)s3)cc2c(=O)[nH]1 [Compound 41, Raltitrexed] | 1.7 | 38.7 | 1.1 | 25.4 | – | –
Cc1cn(-c2cc(NC(=O)c3ccc(C)c(Nc4nccc(-c5cccnc5)n4)c3)cc(C(F)(F)F)c2)cn1 [Compound 51, Nilotinib] | 0.6 | 12.7 | 1.1 | 18.2 | – | –
Cc1cn(-c2cc(NC(=O)c3ccc(C)c(Nc4nccc(-c5cnccn5)n4)c3)cc(C(F)(F)F)c2)cn1 [Compound 52, Radotinib] | 0.9 | 20.8 | 1.0 | 21.7 | – | –
CN(C)Cc1c(C(=O)NCCOc2ccc(C(=O)NO)cc2)oc2ccccc12 [Compound 54, Abexinostat] | 37.2 | 836.0 | 2.3 | 48.4 | most robust response | –
Fc1ccccc1-c1nc2ccn(Cc3ccc(-c4ccc(C(F)(F)F)cc4C(F)(F)F)nn3)cc-2n1 [Compound 66, Tegobuvir] | 0.9 | 20.9 | 1.2 | 26.2 | – | –
O=C(NC1CCN(CCCCC2(C(=O)NCC(F)(F)F)c3ccccc3-c3ccccc32)CC1)c1ccccc1-c1ccc(C(F)(F)F)cc1 [Compound 68, Lomitapide] | 37.7 | 848.5 | 3.4 | 39.2 | most robust response | strongest increase in HSP-27 phosphorylation
Cc1cc(C(=O)Nc2cc(Nc3ccc4c(/C=C/c5ccccn5)n[nH]c4c3)ccc2F)n(C)n1 [Compound 74, Ag-13958] | 0.7 | 15.2 | 1.2 | 20.4 | – | –
O=C(Nc1ccc(-c2ccnc(Nc3ccc(N4CCOCC4)cc3)n2)cc1)C1CCCN1 (centres unmarked) [Compound 78, Xl-019] | 0.7 | 15.0 | 0.6 | 15.2 | – | –
CC(=O)Nc1nc2c(Oc3cc(-c4ccc(C(F)(F)F)cc4)ncn3)cccc2s1 [Compound 83, Amg-517] | 1.3 | 29.9 | 2.1 | 33.7 | – | –
O=C(O)CCn1c2c(c3ccccc31)C[C@H](NS(=O)(=O)c1ccc(F)cc1)CC2 [Compound 93, Ramatroban] | 1.5 | 33.2 | 1.3 | 27.6 | – | –
O=C(O)c1ccc2nc(-c3cc(Cl)cc(Cl)c3)oc2c1 [Compound 95, Tafamidis] | 1.1 | 24.1 | 0.8 | 18.6 | – | –
COc1ccc(-c2cc(C(F)F)nn2-c2ccc(S(N)(=O)=O)cc2)cc1F [Compound 113, Deracoxib] | 1.2 | 26.2 | 1.2 | 26.5 | – | –
OC[C@@H](O)CN1CCN(c2ccccc2)CC1 [Levodropropizine] | 27.6 | 621.3 | 2.3 | 47.1 | most robust response | –
